Source: PubChem BioAssay AID1963851 (Molecular Pharmacology Branch, DTP, NCI, 2024)

Test system: 188146-221-R-J1-PDC complex spheroid viability
Experiment: Anticancer human tumor 188146-221-R-J1-PDC patient-derived colon adenocarcinoma cell line growth inhibition [POLQ]
Details: for IC50: curve of first compound; for viability, T/C: stronger effect = lower value
Procedure, shortened: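 Complex spheroid viability model combining PDC tumour cells with endothelial (HUVEC) and MSC stromal cells. Novobiocin, ART-558 or RP6685 were tested singly and in combination with standard and investigational anticancer drugs. Each was titrated in half-log steps from near clinical Cmax, or from 10 microM where Cmax was unknown.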

[1] = second compound 0.0316 µM, first compound 0.0316 µM
[2] = second compound 0.0316 µM, first compound 0.1 µM
[3] = second compound 0.0316 µM, first compound 0.316 µM
[4] = second compound 0.0316 µM, first compound 1 µM
[5] = second compound 0.0316 µM, first compound 3.16 µM
[6] = second compound 0.0316 µM, first compound 10 µM
[7] = second compound 0.1 µM, first compound 0.0316 µM
[8] = second compound 0.1 µM, first compound 0.1 µM
[9] = second compound 0.1 µM, first compound 0.316 µM
[10] = second compound 0.1 µM, first compound 1 µM
[11] = second compound 0.1 µM, first compound 3.16 µM
[12] = second compound 0.1 µM, first compound 10 µM
[13] = second compound 0.316 µM, first compound 0.0316 µM
[14] = second compound 0.316 µM, first compound 0.1 µM
[15] = second compound 0.316 µM, first compound 0.316 µM
[16] = second compound 0.316 µM, first compound 1 µM
[17] = second compound 0.316 µM, first compound 3.16 µM
[18] = second compound 0.316 µM, first compound 10 µM
[19] = second compound 1 µM, first compound 0.0316 µM
[20] = second compound 1 µM, first compound 0.1 µM
[21] = second compound 1 µM, first compound 0.316 µM
[22] = second compound 1 µM, first compound 1 µM
[23] = second compound 1 µM, first compound 3.16 µM
[24] = second compound 1 µM, first compound 10 µM
[25] = second compound 3.16 µM, first compound 0.0316 µM
[26] = second compound 3.16 µM, first compound 0.1 µM
[27] = second compound 3.16 µM, first compound 0.316 µM
[28] = second compound 3.16 µM, first compound 1 µM
[29] = second compound 3.16 µM, first compound 3.16 µM
[30] = second compound 3.16 µM, first compound 10 µM
[31] = second compound 10 µM, first compound 0.0316 µM
[32] = second compound 10 µM, first compound 0.1 µM
[33] = second compound 10 µM, first compound 0.316 µM
[34] = second compound 10 µM, first compound 1 µM
[35] = second compound 10 µM, first compound 3.16 µM
[36] = second compound 10 µM, first compound 10 µM
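Also: spheroids exposed to compounds for seven days.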
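For viability, T/C in this document: 100% = DMSO vehicle control viability.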

CC(C)n1c(=O)n(C)c2cnc3cc(F)c(-c4ccc(OCCCN5CCCCC5)nc4)cc3c21 + Cc1cccc(N(C)C(=O)C2C(O)CCN2c2nc(C)cc(C(F)(F)F)c2C#N)c1
IC50 (second compound 0.0316 µM): > 10000 nM
IC50 (second compound 0.1 µM): > 10000 nM
IC50 (second compound 0.316 µM): > 10000 nM
IC50 (second compound 1 µM): > 10000 nM
IC50 (second compound 3.16 µM): > 10000 nM
IC50 (second compound 10 µM): > 10000 nM
viability, T/C [1]: 110%
viability, T/C [2]: 97.9%
viability, T/C [3]: 100%
viability, T/C [4]: 106%
viability, T/C [5]: 102%
viability, T/C [6]: 83.7%
viability, T/C [7]: 109%
viability, T/C [8]: 98.5%
viability, T/C [9]: 107%
viability, T/C [10]: 113%
viability, T/C [11]: 90.5%
viability, T/C [12]: 89.1%
viability, T/C [13]: 108%
viability, T/C [14]: 115%
viability, T/C [15]: 98.7%
viability, T/C [16]: 100%
viability, T/C [17]: 85.4%
viability, T/C [18]: 85.9%
viability, T/C [19]: 111%
viability, T/C [20]: 107%
viability, T/C [21]: 104%
viability, T/C [22]: 93%
viability, T/C [23]: 88.6%
viability, T/C [24]: 86.5%
viability, T/C [25]: 103%
viability, T/C [26]: 104%
viability, T/C [27]: 100%
viability, T/C [28]: 82%
viability, T/C [29]: 99.6%
viability, T/C [30]: 81.8%
viability, T/C [31]: 91.6%
viability, T/C [32]: 85.8%
viability, T/C [33]: 101%
viability, T/C [34]: 97.4%
viability, T/C [35]: 93.7%
viability, T/C [36]: 95%

CC(=O)O[C@H]1C(=O)[C@@]2(C)[C@H]([C@H](OC(=O)c3ccccc3)[C@]3(O)C[C@H](OC(=O)[C@H](O)[C@@H](NC(=O)c4ccccc4)c4ccccc4)C(C)=C1C3(C)C)[C@]1(OC(C)=O)CO[C@@H]1C[C@@H]2O + Nc1ccc(C#CCN(C(=O)Cc2ncc(C(F)(F)F)cc2C(F)(F)F)c2ccc(F)cc2)nn1
IC50 (second compound 0.0316 µM): 13.6 nM
IC50 (second compound 0.1 µM): 12.5 nM
IC50 (second compound 0.316 µM): 14.5 nM
IC50 (second compound 1 µM): 10.4 nM
IC50 (second compound 3.16 µM): 10.5 nM
IC50 (second compound 10 µM): < 9.49 nM
viability, T/C (second compound 0.0316 µM, first compound 0.00949 µM): 63.4%
viability, T/C (second compound 0.0316 µM, first compound 0.03 µM): 20.8%
viability, T/C (second compound 0.0316 µM, first compound 0.0949 µM): 12.1%
viability, T/C (second compound 0.0316 µM, first compound 0.3 µM): 12.3%
viability, T/C (second compound 0.0316 µM, first compound 0.949 µM): 12.3%
viability, T/C (second compound 0.0316 µM, first compound 3 µM): 11.4%
viability, T/C (second compound 0.1 µM, first compound 0.00949 µM): 59.2%
viability, T/C (second compound 0.1 µM, first compound 0.03 µM): 22.4%
viability, T/C (second compound 0.1 µM, first compound 0.0949 µM): 12.4%
viability, T/C (second compound 0.1 µM, first compound 0.3 µM): 11.6%
viability, T/C (second compound 0.1 µM, first compound 0.949 µM): 13.2%
viability, T/C (second compound 0.1 µM, first compound 3 µM): 17.6%
viability, T/C (second compound 0.316 µM, first compound 0.00949 µM): 67.8%
viability, T/C (second compound 0.316 µM, first compound 0.03 µM): 19.9%
viability, T/C (second compound 0.316 µM, first compound 0.0949 µM): 11.4%
viability, T/C (second compound 0.316 µM, first compound 0.3 µM): 13.2%
viability, T/C (second compound 0.316 µM, first compound 0.949 µM): 12.4%
viability, T/C (second compound 0.316 µM, first compound 3 µM): 12.9%
viability, T/C (second compound 1 µM, first compound 0.00949 µM): 53.1%
viability, T/C (second compound 1 µM, first compound 0.03 µM): 16%
viability, T/C (second compound 1 µM, first compound 0.0949 µM): 14%
viability, T/C (second compound 1 µM, first compound 0.3 µM): 10.8%
viability, T/C (second compound 1 µM, first compound 0.949 µM): 12.7%
viability, T/C (second compound 1 µM, first compound 3 µM): 13.6%
viability, T/C (second compound 3.16 µM, first compound 0.00949 µM): 53.4%
viability, T/C (second compound 3.16 µM, first compound 0.03 µM): 16.5%
viability, T/C (second compound 3.16 µM, first compound 0.0949 µM): 14.4%
viability, T/C (second compound 3.16 µM, first compound 0.3 µM): 12.5%
viability, T/C (second compound 3.16 µM, first compound 0.949 µM): 12.9%
viability, T/C (second compound 3.16 µM, first compound 3 µM): 14%
viability, T/C (second compound 10 µM, first compound 0.00949 µM): 45.5%
viability, T/C (second compound 10 µM, first compound 0.03 µM): 16.9%
viability, T/C (second compound 10 µM, first compound 0.0949 µM): 15.8%
viability, T/C (second compound 10 µM, first compound 0.3 µM): 13.3%
viability, T/C (second compound 10 µM, first compound 0.949 µM): 14.4%
viability, T/C (second compound 10 µM, first compound 3 µM): 17.6%

O=c1[nH]cc(F)c(=O)[nH]1 + Nc1ccc(C#CCN(C(=O)Cc2ncc(C(F)(F)F)cc2C(F)(F)F)c2ccc(F)cc2)nn1
IC50 (second compound 0.0316 µM): 2920 nM
IC50 (second compound 0.1 µM): 2730 nM
IC50 (second compound 0.316 µM): 2140 nM
IC50 (second compound 1 µM): 3660 nM
IC50 (second compound 3.16 µM): 1620 nM
IC50 (second compound 10 µM): 1990 nM
viability, T/C [1]: 116%
viability, T/C [2]: 111%
viability, T/C [3]: 83.8%
viability, T/C [4]: 54.1%
viability, T/C [5]: 46.6%
viability, T/C [6]: 52.4%
viability, T/C [7]: 121%
viability, T/C [8]: 105%
viability, T/C [9]: 72.6%
viability, T/C [10]: 58%
viability, T/C [11]: 50.3%
viability, T/C [12]: 45.5%
viability, T/C [13]: 113%
viability, T/C [14]: 103%
viability, T/C [15]: 79.2%
viability, T/C [16]: 55.2%
viability, T/C [17]: 48.9%
viability, T/C [18]: 43.2%
viability, T/C [19]: 100%
viability, T/C [20]: 82.4%
viability, T/C [21]: 74.5%
viability, T/C [22]: 58.6%
viability, T/C [23]: 50.1%
viability, T/C [24]: 44.9%
viability, T/C [25]: 102%
viability, T/C [26]: 91.7%
viability, T/C [27]: 74%
viability, T/C [28]: 49.9%
viability, T/C [29]: 46.6%
viability, T/C [30]: 47.5%
viability, T/C [31]: 123%
viability, T/C [32]: 112%
viability, T/C [33]: 85.7%
viability, T/C [34]: 54.6%
viability, T/C [35]: 47.1%
viability, T/C [36]: 43.7%
